# Source: patent publication US20100056507A1, “PHENYL DERIVATIVES AND THEIR USE AS A MEDICAMENT” (IPSEN PHARMA S.A.S., priority 2006, published 2010)
# Like-named read-outs stand apart in the source and are kept apart here.
# Target: T1, human CB2 receptors (Homo sapiens, UniProt P34972)
# T1 construct: expressed in transfected cells; membranes used
# Assay: Affinity for the human CB2 cannabinoid receptors: inhibition of [3H]-CP55940 binding to transfected CHO-K1 cell membranes
# Conditions: [3H]-CP55940 1 nM, CHO-K1 membranes expressing human CB2, Cheng-Prusoff correction
# Procedure: The affinity of the compounds of the invention for the human CB2 receptors is determined by measuring the inhibition of the binding of [^3H]-CP55940 to transfected CHO-K1 cell membrane preparations.
# The cells are collected with 0.5 mM of EDTA and centrifuged at 500 g for 5 minutes at 4° C. The pellet is re-suspended in phosphate buffered saline medium (PBS) and centrifuged at 500 g for 5 minutes at 4° C. The pellet is re-suspended in a Tris 50 mM buffer medium at pH 7.4 and centrifuged at 500 g for 5 minutes at 4° C. The cells are lysed by sonication and centrifuged at 39,000 g for 10 minutes at 4° C. The pellet is re-suspended in the Tris 50 mM buffer medium at pH 7.4 and centrifuged at 50,000 g for 10 minutes at 4° C. The membranes obtained in this last pellet are stored at −80° C.
# Measurement of the competitive inhibition of the binding of the [^3H]-CP55940 to the CB2 receptors is carried out in duplicate using 96-well polypropylene plates. The cell membranes (10 μg of proteins/well) are incubated with the [^3H]-CP55940 (1 nM) for 60 minutes at 25° C. in a Tris-HCl 50 mM buffer medium, pH 7.4, comprising 0.1% bovine serum albumin (BSA), 5 mM of MgCl2, and 50 μg/ml of bacitracin.
# The filters are washed with Tris-HCl 50 mM buffer, pH 7.4 at 0-4° C. and the radioactivity present is determined using a counter (Packard Top Count).
# The specific binding is obtained by subtracting the non-specific binding (determined in the presence of 0.1 μM of WIN55212-2 from the total binding). The data are analyzed by computer-assisted non-linear regression (MDL). For each test, a Cheng-Prusoff correction is made in order to convert the IC50 to the inhibition constant, Ki.
# where [L] is the concentration of the radioligand used in the test and Kd is the radioligand equilibrium disassociation constant.
# T1 sequence (P34972 whole entry): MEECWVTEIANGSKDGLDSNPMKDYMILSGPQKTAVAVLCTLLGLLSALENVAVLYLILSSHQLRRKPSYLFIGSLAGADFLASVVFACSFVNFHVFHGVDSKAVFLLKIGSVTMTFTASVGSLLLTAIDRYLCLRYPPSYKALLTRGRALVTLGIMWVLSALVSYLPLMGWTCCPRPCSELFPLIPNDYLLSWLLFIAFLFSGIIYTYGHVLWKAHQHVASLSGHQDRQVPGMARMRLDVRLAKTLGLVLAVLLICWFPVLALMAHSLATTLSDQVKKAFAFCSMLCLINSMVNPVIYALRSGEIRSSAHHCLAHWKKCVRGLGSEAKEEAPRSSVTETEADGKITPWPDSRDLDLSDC
SMILES,Ki (read-out: Ki < 0.5 μM),Ki (read-out: Ki < 5 μM)
C=CCNC(=O)Nc1ccc(CCc2nc(-c3ccc4c(c3)C(C)(C)CCC4(C)C)co2)cc1 [Example 40],< 0.5 µM,< 5 µM
C=CCNC(=O)Nc1ccc(CNc2nnc(-c3cc(C(C)(C)C)cc(C(C)(C)C)c3)o2)cc1 [Example 24],< 0.5 µM,< 5 µM
CC(C)(C)c1cc(-c2nnc(Cc3ccc(/N=C(/N)c4cccs4)cc3)o2)cc(C(C)(C)C)c1 [Example 2],< 0.5 µM,< 5 µM
CC1(C)CCC(C)(C)c2cc(C(=O)OCCc3ccc(NC(=O)C4CC45CCC5)cc3)ccc21 (stereo not shown) [Example 90],< 0.5 µM,< 5 µM
CCCNC(=O)Nc1ccc(Cc2nnc(-c3cc(C(C)(C)C)cc(C(C)(C)C)c3)o2)cc1 [Example 14],< 0.5 µM,< 5 µM
CC1(C)CCC(C)(C)c2cc(-c3nnc(NCc4ccc(NC(=O)C5CCC5)cc4)o3)ccc21 [Example 25],< 0.5 µM,< 5 µM
CC1(C(=O)Nc2ccc(CCOC(=O)c3ccc4c(c3)C(C)(C)CCC4(C)C)cc2)CC1 [Example 87],< 0.5 µM,< 5 µM
CC(C)NC(=O)Nc1ccc(CCOC(=O)c2ccc3c(c2)C(C)(C)CCC3(C)C)cc1 [Example 73],< 0.5 µM,< 5 µM
O=C(OCCc1ccc(NC(=O)C2CCC2)cc1)c1ccc2c(c1)C(=O)CC2 [Example 38],,< 5 µM
CCCCNC(=O)Nc1ccc(CCOC(=O)c2ccc3c(c2)C(C)(C)CCC3(C)C)cc1 [Example 83],< 0.5 µM,< 5 µM
CC1(C)CCC(C)(C)c2cc(C(=O)OCCc3ccc(NC(=O)C4CCCCC4)cc3)ccc21 [Example 65],< 0.5 µM,< 5 µM
CCNC(=O)Nc1ccc(CCOC(=O)c2ccc3c(c2)C(C)(C)CCC3(C)C)cc1 [Example 81],< 0.5 µM,< 5 µM
CCS(=O)(=O)Nc1ccc(CCOC(=O)c2ccc3c(c2)C(C)(C)CCC3(C)C)cc1 [Example 70],< 0.5 µM,< 5 µM
CC1(C)CCC(C)(C)c2cc(C(=O)OCCc3ccc(NC(=O)Cc4ccccc4)cc3)ccc21 [Example 67],< 0.5 µM,< 5 µM
CC1(C)CCC(C)(C)c2cc(C(=O)OCCc3ccc(NC(=S)NCc4ccco4)cc3)ccc21 [Example 80],< 0.5 µM,< 5 µM
CCCCC(=O)Nc1ccc(CCOC(=O)c2ccc3c(c2)C(C)(C)CCC3(C)C)cc1 [Example 60],< 0.5 µM,< 5 µM
Cc1cc2c(cc1C(=O)OCCc1ccc(NC(=O)C3CCC3)cc1)C(C)(C)CC(C)C2(C)C (stereo not shown) [Example 45],< 0.5 µM,< 5 µM
CC1(C)CCC(C)(C)c2cc(C(=O)OCCc3ccc(NC(=O)C4CC4)cc3)ccc21 [Example 63],< 0.5 µM,< 5 µM
CC1(C)CCC(C)(C)c2cc(C(=O)OCc3ccc(C(=O)NC4CCC4)cc3)ccc21 [Example 3],< 0.5 µM,< 5 µM
CN1CCOc2cc(C(=O)OCCc3ccc(NC(=O)C4CCC4)cc3)ccc21 [Example 10],< 0.5 µM,< 5 µM
CCCNC(=S)Nc1ccc(CCOC(=O)c2ccc3c(c2)C(C)(C)CCC3(C)C)cc1 [Example 77],< 0.5 µM,< 5 µM
O=C(OCCc1ccc(NC(=O)C2CCC2)cc1)c1ccc2c(c1)C(=O)CCC2 [Example 7],,< 5 µM
CC1(C)CCC(C)(C)c2cc(-c3nnc(CCc4ccc(NC(=O)C5CCC5)cc4)s3)ccc21 [Example 51],< 0.5 µM,< 5 µM
CC1(C)CCC(C)(C)c2cc(C(=O)OCCc3ccc(NC(=O)NCc4ccco4)cc3)ccc21 [Example 75],< 0.5 µM,< 5 µM
CCCNC(=O)Nc1ccc(CCc2nnc(-c3ccc4c(c3)C(C)(C)CCC4(C)C)o2)cc1 [Example 33],< 0.5 µM,< 5 µM
CC1(C)CCC(C)(C)c2cc(-c3nnc(NCc4ccc(/N=C(/N)c5cccs5)cc4)o3)ccc21 [Example 28],,< 5 µM
CC(C)(C)CC(=O)Nc1ccc(CCOC(=O)c2ccc3c(c2)C(C)(C)CCC3(C)C)cc1 [Example 59],< 0.5 µM,< 5 µM

# Continued, values first:
Ki (read-out: Ki < 0.5 μM),Ki (read-out: Ki < 5 μM),SMILES
< 0.5 µM,< 5 µM,C=CC(=O)Nc1ccc(CCOC(=O)c2ccc3c(c2)C(C)(C)CCC3(C)C)cc1 [Example 61]
< 0.5 µM,< 5 µM,CCC(C)NC(=O)Nc1ccc(CCOC(=O)c2ccc3c(c2)C(C)(C)CCC3(C)C)cc1 (stereo not shown) [Example 82]
< 0.5 µM,< 5 µM,C=CCNC(=O)Nc1ccc(CCOC(=O)c2ccc3c(c2)C(C)(C)CCC3(C)C)cc1 [Example 30]
< 0.5 µM,< 5 µM,CCCNC(=O)Nc1ccc(Cc2noc(-c3cc(C(C)(C)C)cc(C(C)(C)C)c3)n2)cc1 [Example 21]
< 0.5 µM,< 5 µM,CC1(C)CCC(C)(C)c2cc(C(=O)OCCc3ccc(NC(=O)C4CCCC4)cc3)ccc21 [Example 64]
< 0.5 µM,< 5 µM,CC1(C)CCC(C)(C)c2cc(C(=O)OCCc3ccc(NC(=O)NC4CC4)cc3)ccc21 [Example 96]
< 0.5 µM,< 5 µM,CC(C)(C)c1cc(-c2nnc(NCc3ccc(/N=C(/N)c4cccs4)cc3)o2)cc(C(C)(C)C)c1 [Example 27]
< 0.5 µM,< 5 µM,COCCC(=O)Nc1ccc(CCOC(=O)c2ccc3c(c2)C(C)(C)CCC3(C)C)cc1 [Example 86]
< 0.5 µM,< 5 µM,"CCCNC(=O)Nc1ccc(CCc2nnc(-c3cc(C(C)(C)C)cc(C(C)(C)C)c3)s2)cc1 [Example 48, N-(4-{2-[5-(3,5-di-tert-butylphenyl)-1,3,4-thiadiazol-2-yl]ethyl}phenyl)-N′-propylurea]"
< 0.5 µM,< 5 µM,C=CCNC(=O)Nc1ccc(Cc2nnc(-c3cc(C(C)(C)C)cc(C(C)(C)C)c3)o2)cc1 [Example 13]
< 0.5 µM,< 5 µM,CC1(C)CCC(C)(C)c2cc(C(=O)OCCc3ccc(NC(=O)Cc4ccco4)cc3)ccc21 [Example 93]
< 0.5 µM,< 5 µM,Cc1cc2c(cc1C(=O)OCCc1ccc(NC(=O)C3CCC3)cc1)C(C)(C)CCC2(C)C [Example 49]
< 0.5 µM,< 5 µM,"CCCNC(=O)Nc1ccc(CCOC(=O)c2ccc3c(c2)C(C)(C)CCC3(C)C)cc1 [Example 29, 2-(4-{[(propylamino)carbonyl]amino}phenyl)ethyl 5,5,8,8-tetramethyl-5,6,7,8-tetrahydronaphthalene-2-carboxylate]"
< 0.5 µM,< 5 µM,CC(C)C(=O)Nc1ccc(CCOC(=O)c2ccc3c(c2)C(C)(C)CCC3(C)C)cc1 [Example 56]
< 0.5 µM,< 5 µM,Cc1cc2c(cc1C(=O)OCCc1ccc(NC(=O)C3CCC3)cc1)CCCC2(C)C [Example 36]
< 0.5 µM,< 5 µM,"CC1(C)CCC(C)(C)c2cc(C(=O)OCCc3ccc(NC(=O)C4CCC4)cc3)ccc21 [Example 1, 2-{4-[(cyclobutylcarbonyl)amino]phenyl}ethyl 5,5,8,8-tetramethyl-5,6,7,8-tetrahydronaphthalene-2-carboxylate]"
< 0.5 µM,< 5 µM,CC1(C)CCC(C)(C)c2cc(C(=O)OCCc3ccc(NC(=O)NCc4ccccc4)cc3)ccc21 [Example 84]
